From US20220064647A1, “COMPOSITIONS AND METHODS FOR TREATING CYSTIC FIBROSIS” (SpliSense Ltd., priority 2019, published 2022)

Molecular target: T1, CFTR del Ex24 (Homo sapiens, UniProt P13569, DEL1292-1321)
T1 construct: expressed in transfected cells; host or cells: HEK 293 cells, transient transfection with Lipofectamine 2000
Test: FLIPR membrane potential assay of CFTR function
Format: cell-based
Conditions: HEK 293 cells transiently transfected with CFTR del Ex24; activated by forskolin 10 uM; FIG. 1B
Method: HEK cells were transiently transfected with a construct bearing a CFTR transcript having exon 24 completely deleted from it (CFTR del Ex24). Transfection was carried out using Lipofectamine 2000 transfection reagent (Invitrogen) according to the lipofectamine 2000 reagent protocol using the following lipofectamine amounts: 96 well—0.15 μl, 6 well—3 μl, 10 mm plate—15 μl. HEK cells transfected with the CFTR del Ex24 construct were grown in 96-well (black, flat bottom; corning) plates. 48 hr post-transfection, CFTR channel function was analyzed using the FLIPR membrane potential assay as previously described (Molinski et al., 2015). Briefly, the cells were loaded with blue membrane potential dye (Molecular Devices), which can detect changes in transmembrane potential. The plate was then read in a fluorescence plate reader (BioTek Synergy H1) for baseline levels followed by CFTR stimulation using the cAMP agonist forskolin (10 μM; Sigma), DMSO vehicle was used as a negative control. CFTR-mediated depolarization of the plasma membrane was detected as an increase in fluorescence and hyperpolarization (or repolarization) as a decrease. […] FLIPR™ (Fluorescence Imaging Plate Reader) is a functional system that allows measuring changes in membrane potential by a fluorescent indicator. […]

T1 sequence (P13569 with tags, fused parts or gaps DEL1292-1321): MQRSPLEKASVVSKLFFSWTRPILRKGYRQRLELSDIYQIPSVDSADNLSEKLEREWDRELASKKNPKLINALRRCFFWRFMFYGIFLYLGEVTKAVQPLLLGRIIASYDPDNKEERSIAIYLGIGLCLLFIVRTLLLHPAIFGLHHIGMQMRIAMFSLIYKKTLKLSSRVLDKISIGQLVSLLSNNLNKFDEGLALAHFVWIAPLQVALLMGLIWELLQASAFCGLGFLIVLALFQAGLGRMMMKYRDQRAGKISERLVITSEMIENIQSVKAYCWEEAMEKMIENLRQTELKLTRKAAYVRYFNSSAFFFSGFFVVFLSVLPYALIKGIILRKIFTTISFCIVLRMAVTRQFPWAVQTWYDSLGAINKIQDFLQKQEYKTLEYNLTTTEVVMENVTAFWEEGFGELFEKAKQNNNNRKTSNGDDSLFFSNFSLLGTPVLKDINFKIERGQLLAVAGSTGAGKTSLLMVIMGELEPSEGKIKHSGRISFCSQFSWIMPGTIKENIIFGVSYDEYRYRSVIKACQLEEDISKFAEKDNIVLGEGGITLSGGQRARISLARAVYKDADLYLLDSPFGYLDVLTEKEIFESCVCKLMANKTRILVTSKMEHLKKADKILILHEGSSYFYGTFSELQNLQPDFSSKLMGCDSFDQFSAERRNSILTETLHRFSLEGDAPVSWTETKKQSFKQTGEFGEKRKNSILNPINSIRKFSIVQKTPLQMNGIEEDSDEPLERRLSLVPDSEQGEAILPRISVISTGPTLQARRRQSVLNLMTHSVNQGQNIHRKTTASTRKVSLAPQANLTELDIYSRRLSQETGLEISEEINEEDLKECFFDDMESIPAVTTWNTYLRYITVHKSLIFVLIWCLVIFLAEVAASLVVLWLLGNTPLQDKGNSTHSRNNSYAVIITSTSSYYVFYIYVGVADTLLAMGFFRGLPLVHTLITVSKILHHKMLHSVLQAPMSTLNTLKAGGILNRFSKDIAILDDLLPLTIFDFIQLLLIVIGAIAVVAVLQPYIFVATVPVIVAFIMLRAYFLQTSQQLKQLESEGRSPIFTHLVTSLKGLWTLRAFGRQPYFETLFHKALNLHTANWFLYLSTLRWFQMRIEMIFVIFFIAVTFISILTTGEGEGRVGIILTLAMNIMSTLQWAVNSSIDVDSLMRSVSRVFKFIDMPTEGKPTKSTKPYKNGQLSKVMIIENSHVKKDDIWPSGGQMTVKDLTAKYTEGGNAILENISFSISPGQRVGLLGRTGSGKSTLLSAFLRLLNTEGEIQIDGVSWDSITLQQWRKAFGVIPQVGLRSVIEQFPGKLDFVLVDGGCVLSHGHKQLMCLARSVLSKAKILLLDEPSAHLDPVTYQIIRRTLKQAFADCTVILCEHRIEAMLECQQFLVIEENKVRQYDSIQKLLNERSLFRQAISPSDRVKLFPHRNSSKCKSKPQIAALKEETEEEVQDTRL

CC(C)(C)c1cc(C(C)(C)C)c(NC(=O)c2c[nH]c3ccccc3c2=O)cc1O [VX-770, N-(2,4-Di-tert-butyl-5-hydroxyphenyl)-4-oxo-1,4-dihydroquinoline-3-carboxamide]
channel activation: 50 % of WT
